The record followed here is ChEMBL document CHEMBL4483862, “Open-source discovery of chemical leads for next-generation chemoprotective antimalarials” (2018).

Some results are limits rather than exact numbers.

For this test, the system named is Plasmodium berghei. In words: Luciferase/luciferin-expressing antifolate-resistant parasites were used to infect a culture of HepG2 cells that were pre-incubated with compounds. Infected hepatocytes emit light due to the luciferase reaction. Assay results are presented as the percent inhibition of light emission compared to control. […]. The settings on record: sporozoite; for IC90: read-out: LUCIFERASE INFECTION ASSAY - IC90. Type of test: functional.

The mark [1] stands for this setting: read-out: LUCIFERASE INFECTION ASSAY - IC50.

Turning to `O=C(NCCNc1ccc2ccccc2c1)c1cc2ccccc2nc1Cl`, the IC90 (as a rule, the concentration at which the effect reaches the 90% level) is > 10 µM. The IC50 – broadly, the midpoint of a concentration-inhibition curve – (PBLUC_HILL_SLOPE 1.17, 2.29, PBLUC_R_SQUARED 0.341, 0.725, read-out: LUCIFERASE INFECTION ASSAY - IC50) is 5.88 µM.
In the case of `CCCC(CNC(=O)COC(=O)c1ccc2[nH]c3c(c2c1)CCCC3)c1ccc(Cl)cc1Cl` (stereo not given), the IC90 is > 10 µM. Moreover, the IC50 (HEPG2TOX_HILL_SLOPE 0.187, HEPG2TOX_R_SQUARED 0.0336, read-out: LUCIFERASE INFECTION ASSAY - IC50) is > 10 µM.
In the case of `CN1CCN(c2ccc(-c3cn4c(-c5cccc(OC(F)(F)F)c5)cnc4cn3)cn2)CC1`, the IC90 is > 7.26 µM. The half-inhibitory concentration (IC50) (PBLUC_HILL_SLOPE 2.39, PBLUC_R_SQUARED 0.449, read-out: LUCIFERASE INFECTION ASSAY - IC50) was determined as 5.98 µM.
With `O=C(OCc1cn(-c2ccccc2)nc1-c1ccccc1)c1ccc(N2CCOCC2)nc1`, the concentration for an effect of 90% (IC90) is > 10 µM. Under setting [1], the IC50 is > 10 µM.
As for `CCOC(=O)Nc1cccc(N)c1C`, the IC90 was > 10 µM. The concentration for half-maximal inhibition (IC50) under setting [1] was > 10 µM.
Regarding `O=C(COc1ccc(F)cc1C(=O)c1cnn(-c2ccccc2)c1)Nc1ccc(Br)cc1F`, the concentration for an effect of 90% (IC90) was > 10 µM. Further, the 50% inhibitory concentration (IC50) (HEPG2TOX_HILL_SLOPE 0.0675, HEPG2TOX_R_SQUARED 0.0289, PBLUC_HILL_SLOPE 1.95, PBLUC_R_SQUARED 0.148, read-out: LUCIFERASE INFECTION ASSAY - IC50) was > 10 µM.
For `Cc1c(OCC(=O)Nc2ccccc2)ccc2c1OC(C)(C)C=C2`, the IC90 is 0.79 µM. For the same compound, the half-inhibitory concentration (IC50) (FFLUC_HILL_SLOPE 0.847, FFLUC_R_SQUARED 0.632, PBLUC_HILL_SLOPE 1.69, PBLUC_R_SQUARED 0.702, read-out: LUCIFERASE INFECTION ASSAY - IC50) came out at 0.216 µM.
In the case of `CSc1ccc(-c2nccc3n[nH]c(C4CC4)c23)cc1`, the concentration for an effect of 90% (IC90) was > 10 µM. Besides, the concentration for half-maximal inhibition (IC50) (PBLUC_HILL_SLOPE 3.07, PBLUC_R_SQUARED 0.601, read-out: LUCIFERASE INFECTION ASSAY - IC50) came out at 5.61 µM.
Regarding `Cn1cc(C(=O)c2ccccc2O)cc1-c1nc2ccccc2[nH]1`, the IC90 worked out at 4.94 µM. Also, for the setting “HEPG2TOX_HILL_SLOPE 8.08, HEPG2TOX_R_SQUARED 0.741, PBLUC_HILL_SLOPE 7.01, PBLUC_R_SQUARED 0.754, read-out: LUCIFERASE INFECTION ASSAY - IC50”, the IC50 was 3.61 µM.
In the case of `CC(C)(C)c1ccccc1NC(=O)Nc1nc(C(N)Cc2ccc(C(F)(F)F)cc2)cs1` (stereo not given), the concentration for an effect of 90% (IC90) stood at 3.44 µM. Further, the 50% inhibitory concentration (IC50) (PBLUC_HILL_SLOPE 9.7, PBLUC_R_SQUARED 0.271, read-out: LUCIFERASE INFECTION ASSAY - IC50) worked out at 2.74 µM.
For `CCOc1cc(/C=C/C(=O)N(c2ccccc2)c2nc(-c3ccc(F)cc3)cs2)cc(Cl)c1OC`, the concentration for an effect of 90% (IC90) is > 10 µM. For the setting “FFLUC_HILL_SLOPE 10.9, FFLUC_R_SQUARED 0.679, read-out: LUCIFERASE INFECTION ASSAY - IC50”, the IC50 is > 10 µM.
With `COc1ccc(-c2cc(NC(=O)c3cc(Cl)c(Cl)[nH]3)ccc2OC)cc1`, the IC90 was determined as 4.33 µM. In addition, the IC50 under setting [1] stood at 3.49 µM.
Turning to `COC(=O)c1c(C)[nH]c(C(=O)C(C)OC(=O)Cn2c(C(F)(F)F)nc3ccccc32)c1C` (stereo not given), the IC90 was > 10 µM. For the same compound, the IC50 (HEPG2TOX_HILL_SLOPE 1.23, HEPG2TOX_R_SQUARED 0.914, read-out: LUCIFERASE INFECTION ASSAY - IC50) was > 10 µM.
Turning to `Oc1c(C(c2ccc(C(F)(F)F)cc2)N2CCCC2)cc(Cl)c2cccnc12` (stereo not given), the IC90 was 2.26 µM. For the setting “FFLUC_HILL_SLOPE 12.3, FFLUC_R_SQUARED 0.824, HEPG2TOX_HILL_SLOPE 1.2, HEPG2TOX_R_SQUARED 0.387, PBLUC_HILL_SLOPE 2.74, PBLUC_R_SQUARED 0.879, read-out: LUCIFERASE INFECTION ASSAY - IC50”, the IC50 was 1.01 µM.
For `CCn1c(NC(=O)c2[nH]nc3ccccc23)nc2ccccc21`, the IC90 is > 10 µM. Also, the IC50 (HEPG2TOX_HILL_SLOPE 8.17, HEPG2TOX_R_SQUARED 0.11, PBLUC_HILL_SLOPE 5.04, PBLUC_R_SQUARED 0.686, read-out: LUCIFERASE INFECTION ASSAY - IC50) turned out to be 7.76 µM.
For `Cn1cc(-c2cn3c(-c4cccc(O)c4)cnc3cn2)cn1`, the concentration for an effect of 90% (IC90) was > 11.3 µM. Besides, where the note is “HEPG2TOX_HILL_SLOPE 8.37, HEPG2TOX_R_SQUARED 0.807, PBLUC_HILL_SLOPE 3.66, PBLUC_R_SQUARED 0.561, read-out: LUCIFERASE INFECTION ASSAY - IC50”, the IC50 was determined as 6.93 µM.
Regarding `Cc1cccc(C(=O)Nc2sc3c(c2C(=O)N2CCCCC2)CCCCC3)c1`, the IC90 is 6.3 µM. Moreover, the IC50 under setting [1] is 0.805 µM.
For `COc1cc2nc(SCc3c(C)noc3C)n(CCC3=CCCCC3)c(=O)c2cc1OC` the same measures were > 10 µM and > 10 µM.
`COc1cc(/C=C2\C(=O)c3ccccc3S(=O)(=O)N2C(C)C)ccc1O`: the IC90 is 2.85 µM. Also, under “FFLUC_HILL_SLOPE 10, FFLUC_R_SQUARED 0.0898, HEPG2TOX_HILL_SLOPE 4.33, HEPG2TOX_R_SQUARED 0.977, PBLUC_HILL_SLOPE 2.02, PBLUC_R_SQUARED 0.77, read-out: LUCIFERASE INFECTION ASSAY - IC50”, the concentration for half-maximal inhibition (IC50) was 0.957 µM.
Take `COC(=O)c1ccc(-c2cnc3ccc(NCc4cccc(Cl)c4)nn23)cc1`: the 90% effect concentration (IC90) is > 8.4 µM. Moreover, under “PBLUC_HILL_SLOPE 14.1, PBLUC_R_SQUARED 0.0198, read-out: LUCIFERASE INFECTION ASSAY - IC50”, the concentration for half-maximal inhibition (IC50) was 7.46 µM.
As to `O=C(Nc1cccc(S(=O)(=O)NC2CC2)c1)c1cc(-c2ccccc2)nn1-c1ccccc1`, the IC90 is > 10 µM. Moreover, the IC50 (HEPG2TOX_HILL_SLOPE 3.71, HEPG2TOX_R_SQUARED 0.26, read-out: LUCIFERASE INFECTION ASSAY - IC50) is > 10 µM.
With `CNc1nc2cnc(Nc3cc(OC)cc(C(F)(F)F)c3)cc2n1Cc1ccco1`, the 90% effect concentration (IC90) is > 10 µM. Moreover, the half-maximal inhibitory concentration (IC50) under setting [1] was > 10 µM.
In the case of `Cc1cc(C(=O)CSc2nnc(C3CC3)[nH]2)c(C)n1-c1cccc(C(F)(F)F)c1`, the 90% effect concentration (IC90) is > 10 µM. Also, the IC50 (HEPG2TOX_HILL_SLOPE 7.7, HEPG2TOX_R_SQUARED 0.0445, PBLUC_HILL_SLOPE 1.16, PBLUC_R_SQUARED 0.631, read-out: LUCIFERASE INFECTION ASSAY - IC50) stood at 3.51 µM.
Turning to `CCC(C)c1ccc(-n2c(=O)c3ccccc3n3c(SCCc4ccncc4)nnc23)cc1` (stereo not given), the IC90 amounted to 9.16 µM. In addition, the concentration for half-maximal inhibition (IC50) (PBLUC_HILL_SLOPE 14.1, 1.41, PBLUC_R_SQUARED 0.703, 0.467, read-out: LUCIFERASE INFECTION ASSAY - IC50) came to 5.1 µM.
Take `COc1ccccc1NC(=S)N/N=C/c1ccc(N2CCOCC2)cc1`: the IC90 was > 10 µM. For the setting “PBLUC_HILL_SLOPE 0.342, PBLUC_R_SQUARED 0.162, read-out: LUCIFERASE INFECTION ASSAY - IC50”, the concentration for half-maximal inhibition (IC50) was 1.98 µM.
For `Cc1cc(O)c(C(=O)/C=C/c2cccc(C(F)(F)F)c2)c(=O)o1`, the concentration for an effect of 90% (IC90) is > 10 µM. Moreover, the IC50 (FFLUC_HILL_SLOPE 56.9, FFLUC_R_SQUARED 0.7, read-out: LUCIFERASE INFECTION ASSAY - IC50) was > 10 µM.
With `CC(C)NC(=O)Nc1ccc(OCc2ncc(C(F)(F)F)cc2Cl)cc1`, the IC90 was > 8.51 µM. The half-maximal inhibitory concentration (IC50) (FFLUC_HILL_SLOPE 8.07, FFLUC_R_SQUARED 0.113, HEPG2TOX_HILL_SLOPE 6.87, HEPG2TOX_R_SQUARED 0.428, PBLUC_HILL_SLOPE 0.555, PBLUC_R_SQUARED 0.618, read-out: LUCIFERASE INFECTION ASSAY - IC50) came to 1.56 µM.
Take `CC(=O)c1c(C)[nH]c(C(=O)CSc2c(C)c(C)cc(C)c2C)c1C`: the concentration for an effect of 90% (IC90) was > 10 µM. Moreover, under “PBLUC_HILL_SLOPE 11.6, PBLUC_R_SQUARED 0.344, read-out: LUCIFERASE INFECTION ASSAY - IC50”, the IC50 was > 10 µM.
As to `O=C(CN1CCN(C(=O)CN2C(=O)NC3(CCCC3)C2=O)CC1)N1CCCC1`, the IC90 was > 10 µM. In addition, the concentration for half-maximal inhibition (IC50) under setting [1] is > 10 µM.
Take `Cc1nn(-c2ccc(F)cc2)c(Cl)c1/C=C1\C(=O)Nc2ccccc21`: the IC90 was found to be 4.68 µM. Moreover, for the setting “HEPG2TOX_HILL_SLOPE 2.09, HEPG2TOX_R_SQUARED 0.992, PBLUC_HILL_SLOPE 1.31, PBLUC_R_SQUARED 0.551, read-out: LUCIFERASE INFECTION ASSAY - IC50”, the IC50 was 0.878 µM.
`CNc1nc2cnc(Nc3ccccc3Cl)cc2n1CC1CC1`: the IC90 is > 10 µM. Further, under setting [1], the IC50 is > 10 µM.
As to `O=C(Cc1ccc(Cl)cc1)N1CCc2nc(NCc3cccc(Oc4ccccc4)c3)ncc2C1`, the concentration for an effect of 90% (IC90) was > 6.8 µM. For the same compound, for the setting “PBLUC_HILL_SLOPE 4.18, PBLUC_R_SQUARED 0.529, read-out: LUCIFERASE INFECTION ASSAY - IC50”, the IC50 worked out at 4.95 µM.
As for `Cc1ccc(CNc2ccc3nnc(C(F)(F)F)n3n2)cc1`, the IC90 is > 10 µM. The concentration for half-maximal inhibition (IC50) (FFLUC_HILL_SLOPE 15, FFLUC_R_SQUARED 0.243, read-out: LUCIFERASE INFECTION ASSAY - IC50) was > 10 µM.
Regarding `COc1cc(/C=C2\SC(=O)N(CCNC(=O)c3cnccn3)C2=O)ccc1OC(F)F`, the concentration for an effect of 90% (IC90) is > 10 µM. Further, where the note is “HEPG2TOX_HILL_SLOPE 8.8, HEPG2TOX_R_SQUARED 0.871, PBLUC_HILL_SLOPE 1.47, PBLUC_R_SQUARED 0.589, read-out: LUCIFERASE INFECTION ASSAY - IC50”, the IC50 is > 10 µM.
For the compound `O=C(Cn1ncc(Cl)c(Cl)c1=O)N1N=C(c2ccco2)CC1c1cccs1` (stereo not given), the IC90 is > 10 µM. The 50% inhibitory concentration (IC50) (FFLUC_HILL_SLOPE 1.67, FFLUC_R_SQUARED 0.501, PBLUC_HILL_SLOPE 2.36, PBLUC_R_SQUARED 0.757, read-out: LUCIFERASE INFECTION ASSAY - IC50) was determined as 4.46 µM.
